Measurements: ChEMBL document CHEMBL2046274, “Pyrazolo[4,3-c][1,2]benzothiazines 5,5-dioxide: a promising new class of Staphylococcus aureus NorA efflux pump inhibitors” (J Med Chem, 2012)
Converted amounts (≈) assume the structure as drawn. The source made the active and inactive calls. The rule behind the calls is not given here.

Legend:
[1] = system: Staphylococcus aureus; test: Antibacterial activity against Staphylococcus aureus SA1199B overexpressing norA and expressing A116E GrlA mutation by microdilution method; type: functional
[2] = system: Staphylococcus aureus; test: Antibacterial activity against wild type Staphylococcus aureus SA1199 expressing norA by microdilution method; type: functional
[3] = system: Staphylococcus aureus; test: Antibacterial activity against norA-deficient Staphylococcus aureus SAK1902 by microdilution method; type: functional
[4] = system: Staphylococcus aureus; test: Antibacterial activity against Staphylococcus aureus SAK2378 overexpressing norA by microdilution method; type: functional
[5] = biological target: T1, Quinolone resistance protein NorA (Staphylococcus aureus) (UniProt P0A0J7); test: Inhibition of norA in wild type Staphylococcus aureus SA1199 expressing assessed as potentiation of ciprofloxacin MIC by checkerboard assay
T1 sequence (whole entry): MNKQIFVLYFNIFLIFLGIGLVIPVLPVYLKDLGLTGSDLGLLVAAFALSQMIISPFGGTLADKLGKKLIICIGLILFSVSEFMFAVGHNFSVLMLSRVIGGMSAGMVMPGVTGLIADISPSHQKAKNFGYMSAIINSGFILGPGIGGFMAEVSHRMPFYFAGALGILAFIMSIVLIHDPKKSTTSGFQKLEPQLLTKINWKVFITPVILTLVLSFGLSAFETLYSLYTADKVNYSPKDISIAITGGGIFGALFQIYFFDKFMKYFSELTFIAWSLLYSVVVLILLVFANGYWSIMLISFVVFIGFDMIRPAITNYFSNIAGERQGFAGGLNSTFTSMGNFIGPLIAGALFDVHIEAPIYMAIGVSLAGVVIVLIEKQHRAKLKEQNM

[6] = biological target: T1, Quinolone resistance protein NorA (Staphylococcus aureus); test: Inhibition of norA overexpressed in Staphylococcus aureus SA1199B coexpressing A116E GrlA mutation assessed as potentiation of ciprofloxacin MIC by checkerboard assay
[7] = biological target: T1, Quinolone resistance protein NorA (Staphylococcus aureus); test: Inhibition of norA-mediated EtBr efflux in Staphylococcus aureus SA1199B overexpressing norA and expressing A116E GrlA mutation at 50 uM by fluorometry
[8] = biological target: Quinolone resistance protein NorA (Staphylococcus aureus, UniProt P0A0J7, A116E); test: Inhibition of norA-mediated EtBr efflux in Staphylococcus aureus SA1199B overexpressing norA and expressing A116E GrlA mutation by fluorometry
[9] = biological target: T1, Quinolone resistance protein NorA (Staphylococcus aureus); test: Inhibition of norA in Staphylococcus aureus SA1199B overexpressing norA and expressing A116E GrlA mutation assessed as fold reduction in ciprofloxacin MIC at >6.25 ug/mL by checkerboard assay
[10] = biological target: T1, Quinolone resistance protein NorA (Staphylococcus aureus); test: Inhibition of norA overexpressed in Staphylococcus aureus SA1199B coexpressing A116E GrlA mutation assessed as fold reduction in ciprofloxacin MIC at >12.5 ug/mL by checkerboard assay
[11] = system: Staphylococcus aureus; test: Potentiation of CPX MIC against norA-deficient Staphylococcus aureus SAK1902 by checkerboard assay; type: functional, organism-based
[12] = biological target: T1, Quinolone resistance protein NorA (Staphylococcus aureus); test: Inhibition of norA overexpressed in Staphylococcus aureus SAK2378 assessed as potentiation of CPX MIC by checkerboard assay
[13] = Cytotoxicity against human HepG2 cells after 24 hrs by LDH release assay; type: cell-based
[14] = biological target: T1, Quinolone resistance protein NorA (Staphylococcus aureus); test: Inhibition of norA overexpressed in Staphylococcus aureus SA1199B coexpressing A116E GrlA mutation potentiation of EtBr MIC at >6.25 ug/mL by checkerboard assay

| Compound | MIC [1] [µg/mL] | MIC [2] [µg/mL] | MIC [3] [µg/mL] | MIC [4] [µg/mL] | inhibition [5] | inhibition [6] | inhibition [7] [%] | also measured |
| --- | --- | --- | --- | --- | --- | --- | --- | --- |
| COC(=O)[C@H]1[C@H]2C[C@@H]3c4[nH]c5cc(OC)ccc5c4CCN3C[C@H]2C[C@@H](OC(=O)c2cc(OC)c(OC)c(OC)c2)[C@@H]1OC [RESERPINE] | > 100 | > 100 | > 100 | > 100 | inactive | Active | – | – |
| O=S1(=O)Nc2c(-c3ccc(Cl)cc3)nn(-c3cccc(F)c3)c2-c2ccccc21 | – | – | – | – | – | – | 33.9 | – |
| Fc1ccc([C@@H]2CCNC[C@H]2COc2ccc3c(c2)OCO3)cc1 [PAROXETINE] | > 100 | > 100 | > 100 | 100 (≈ 304 µM) | inactive | Active | – | – |
| O=S1(=O)Nc2c(-c3ccc(Cl)cc3)nn(-c3ccc(F)cc3)c2-c2ccccc21 | – | – | – | – | – | – | 15.5 | – |
| CS(=O)(=O)Nc1ccc(-n2nc(-c3ccc(Cl)cc3)c3c2-c2ccccc2S(=O)(=O)N3)cc1 | – | – | – | – | – | – | 19.2 | – |
| O=[N+]([O-])c1ccc(-n2nc(-c3ccc(Cl)cc3)c3c2-c2ccccc2S(=O)(=O)N3)cc1 | 50 (≈ 110 µM) | 50 (≈ 110 µM) | 25 (≈ 55.2 µM) | 25 (≈ 55.2 µM) | inactive | Active | 76.9 | IC50 [8]: 10 µM; fold change (FC) [9]: 8; fold change (FC) [10]: 16; Activity [11]: Active; inhibition [12]: Active; CC50 at 24 h [13]: > 100 µg/mL |
| O=C(O)c1cn(C2CC2)c2cc(N3CCNCC3)c(F)cc2c1=O [CIPROFLOXACIN] | 10 (≈ 30.2 µM) | 0.63 (≈ 1.9 µM) | 0.31 (≈ 0.936 µM) | 2.5 (≈ 7.54 µM) | – | – | – | – |
| NS(=O)(=O)c1ccc(-n2nc(-c3ccc(Cl)cc3)c3c2-c2ccccc2S(=O)(=O)N3)cc1 | – | – | – | – | – | – | 29.8 | – |
| Cc1ccc(-c2cc(C(F)(F)F)nn2-c2ccc(S(N)(=O)=O)cc2)cc1 [CELECOXIB] | > 100 | > 100 | – | – | inactive | inactive | 64.5 | IC50 [8]: > 40 µM; inhibition [14]: Active |
| CN1c2c(-c3ccc(Cl)cc3)nn(-c3cccc(C(F)(F)F)c3)c2-c2ccccc2S1(=O)=O | – | – | – | – | – | – | 0 | – |
